In brackets after ≈: the same amount, converted by molar mass. Several values for one entry are separate records, joined by “and”; a condition that tells them apart may be missing. Identical values can stand only once. Entries after “also recorded” stand apart in the source; their conditions may differ. Values belong to the molecule of their own block, whether it stands above or below them.
Assays:
T. congolense [1] = test: NMRI mouse efficacy model, T. congolense; type: in vivo, Trypanosoma congolense; settings: for Efficacy, T. congo / Efficacy at 10 mg/kg SC for 4 days, T. congo: mice; for Efficacy at 10 mg/kg SC for 4 days, T. congo: 10 mg/kg SC once daily for 4 days
Method: (§1) 3. In vivo efficacy studies
(§2) The T. congolense (IL3000) and T. vivax (ILRAD V34) cell lines7, 8, both originating from Kenya, were used in the following in vivo mouse studies. For studies in cattle, either Trypanosoma congolense (savannah) KONT 2/133, 224) or T. vivax STIB 719 was used.
(§3) 3.1 Mouse efficacy studies for T. brucei brucei.
(§4) Mouse efficacy studies for T. brucei brucei were carried out as previously detailed.9 3.2 NMRI mouse efficacy studies for T. congolense and T. vivax.
(§5) Mouse models of infections were carried out using standardized protocols. Briefly, 1 mL samples of cryopreserved T. congolense, or T. vivax-infected blood harvested directly from an infected mouse, were diluted with Hanks Balanced Salt Solution plus 20 mM glucose (HBSS+G) to 5 x 10^4 trypomastigotes/mL (5 x 105 for T. vivax). Female mice (NMRI) were inoculated IP on day 0 with 0.2 mL/animal (equivalent to ~ 1 x 104 T. congolense or ~ 1 x 105 T. vivax per animal). The level of parasitaemia was inspected microscopically on day 3 using tail blood smears, counting 20 high powered fields (× 400 magnification). For untreated or treated animals whose tail smears exceeded 50 parasites/field, precise parasite levels were established using a Neubauer haemocytometer; mice with a parasite burden over 1 x 108 were promptly and humanely terminated (T. congolense only, from our experience the mice will not survive for a further 24 h). Alternatively, in the case of T. vivax-infected mice the immune system will bring the infection to a sub-lethal level (below limit of detection) […]
(§6) followed by cycles of high and low parasitaemia. Eventually mice infected with T. vivax succumb to the infection between 30 – 60 days post-infection.
(§7) Suppression of parasitaemia - mouse
(§8) On day 3 post-infection, animals were randomly allocated to groups, with 3 mice/group. Infected animals were dosed with one of the following: diaminazene diaceturate IP. – 40 mg/kg once only as a control (early-stage trypanocide used to clear the parasites in the systemic circulation and in tissues other than CNS), compound 1 (SC) at 3, 10, 30 and 50 mg free base/kg twice and once daily for 4 d or a single dose, or compound 2 (SC) at 3 and 10 mg free base /kg once daily for 4 d, once daily for 2 d or a single dose, one group of 3 mice acted as an untreated control group. The dose solutions were prepared daily, using 5% DMSO: 40% PEG400: 55% MilliQ H2O for test compounds and 10% DMSO: 90% peanut oil for standard drugs. Alternatively, compound 2 was delivered for 48 h via SC implanted ALZET osmotic pumps (6, 12, 25 and 50 mg free base/mL, vehicle: 50% DMSO […]
(§9) and 50% deionized water).
(§10) Response to treatment was determined by monitoring parasitaemia twice a week until day 21.
(§11) After day 21, the mice were checked once a week until 63 d post-treatment. Mice surviving to the end of the experiment, and with blood smears clear of parasites, were considered cured. […]
(§12) The parasites were obtained from a donor calf. This isolate is resistant to diminazene (20 mg/kg) and isometamidium (1 mg/kg) in cattle, and diminazene (7 mg/kg) and isometamidium (>1 mg/kg) in mice. Calves were parasitaemic by study day 6. Calves (n = 5) were treated with compound 1 (5 mg/kg, SC, twice 12 h apart) on study

[2] = Bovine liver microsome stability; type: in vitro ADME; settings: intrinsic clearance
Method: 2.2 Microsomal stability studies […]
(b) Bovine liver microsome stability. Test compounds (0.5 µM) were incubated with 0.5 mg/mL bovine liver microsomes (Xenotech LLC TM) in 50 mM potassium phosphate buffer, pH7.4 and the reaction initiated upon addition of excess NADPH (8 mg/mL in 50 mM potassium phosphate buffer, pH7.4).
Aliquots (50 µL) of the incubation mixture were taken at time zero, 3, 6, 9, 15 and 30 min then mixed with acetonitrile (100 µL) to stop the reaction. An internal standard was added to all samples, prior to centrifugation (10 min, 1,665 g, RT) to sediment precipitated protein. Reaction plates were then sealed prior to UPLCMSMS analysis using a Quattro Premier XE (Waters corporation, USA).
XLfit (IDBS, UK) was used to calculate the exponential decay and consequently the rate constant (k) from the ratio of peak area of test compound to internal standard at each timepoint. The rate of intrinsic clearance (CLi) of each test compound was then calculated using the following […]
CLi(mL/min/g liver) = k x V x microsomal protein yield
Where V (mL/mg protein) is the incubation volume/ mg protein added and microsomal protein yield is taken as 52.5 mg protein/ g of liver. Verapamil (0.5 µM) was used as a positive control to confirm acceptable assay performance. […]

T. vivax = test: NMRI mouse efficacy model, T. vivax; type: in vivo, Trypanosoma vivax; settings: for Efficacy, T. vivax / Efficacy at 10 mg/kg SC for 4 days, T. vivax: mice; for Efficacy at 10 mg/kg SC for 4 days, T. vivax: 10 mg/kg SC once daily for 4 days
Method: as §1, §2, §3, §4, §5, §6, §7, §8, §9, §10, §11, §12

T. congolense [3] = test: In vitro drug sensitivity assay, T. congolense (IL3000); type: cell-based; settings: Trypanosoma congolense; IL3000 strain
Method: 1.2 In vitro drug sensitivity assays - Trypanosoma congolense
EC50 values for test compounds against T. congolense (IL3000 strain) were conducted as previously described3 with minor modifications.4 Briefly, trypanosome cell densities were determined using a CASY cell counter (Schärfe) and diluted to a seeding density of 2 x 105 trypanosomes/mL. BSF trypanosomes were grown in HMI-9 (IMDM) media supplemented with 20% (v/v) bovine serum.1 Test compounds were resuspended to a final concentration of 10 mg/mL in DMSO. Assays plates were incubated at 34 °C with 5 % CO2, for a total of 69 h, prior to addition of 10 µL of Resazurin (12.5 mg in 100 mL phosphate buffered saline, Aldrich) into each well, followed by a further 3 h incubation. Absorbance was read using a SpectraMax (Gemini XS) fluorescence reader at an excitation wavelength of 536 nm and an emission wavelength of 588 nm. EC50 values were determined using SOFTmax Pro 5.2 analysis software. All experiments were conducted with technical duplicates, and at least three biological replicates. […]

[4] = Aqueous kinetic solubility by laser nephelometry; type: physicochemical; settings: MilliQ water with 2.5% DMSO, read-out: Sol (kinetic solubility); for solubility kinetic at 24 h: pH 7.4, range 250-12 µM
Method: 2. Drug metabolism and pharmacokinetics
The aqueous solubility of test compounds was measured using laser nephelometry. Compounds were subject to serial dilution from 10 mM to 0.5 mM in DMSO. Aliquot were then mixed with MilliQ water to obtain an aqueous dilution plate with a final concentration range of 250 – 12 µM. The final DMSO concentration in these plates was 2.5%. Triplicate aliquots were transferred to a flat-bottomed polystyrene plate which was immediately read on a NEPHELOstar nephelometer (BMG Lab Technologies). The laser scatter caused by insoluble particulates (relative nephelometry units, RNU) was plotted against compound concentration using a segmental regression fit, with the point of inflection being quoted as the compound’s aqueous solubility (µM).
Solubility of compound 1 was measured by a different method. Here, compound 1 was dissolved in DMSO to give a 10 mM solution and solubility test samples prepared by adding a volume (5 µL) of this stock solution to phosphate buffered saline, pH 7.4 (195 µL, Sigma-Aldrich). This

SMILES: CC(C)CS(=O)(=O)N[C@H]1CC[C@H](Nc2nc(N)c(C(=O)c3c(F)cccc3F)s2)CC1 [Compound 1, N-((trans)-4-((4-Amino-5-(2,6-difluorobenzoyl)thiazol-2-yl)amino)cyclohexyl)-2-methylpropane-1-sulfonamide]
Acute T. congolense efficacy in mice (T. congolense [1]; 3 mg/kg bid SC for 4 days): Partial cure (2/3) | Acute T. congolense efficacy in mice (T. congolense [1]; 10 mg/kg bid SC for 4 days): Full cure | T. congolense efficacy in mice (T. congolense [1]; 10 mg/kg once daily for 4 days, SC): sterile cure | Acute T. congolense efficacy in mice (T. congolense [1]; 30 mg/kg, single dose, SC): Partial cure: (2/3) | Acute T. congolense efficacy in mice (T. congolense [1]; 50 mg/kg single dose, SC): sterile cure; also recorded: Full cure | Bovine Microsome Cli (BLM: bovine microsomal clearance) [2]: <0.5 / 0.5 mL/min/g and <0.5 mL/min/g | Acute T. vivax efficacy in mice (T. vivax; 3 mg/kg bid SC for 4 days): Full cure | T. vivax efficacy in mice (T. vivax; 3 mg/kg once daily for 4 days, SC): sterile cure | Acute T. vivax efficacy in mice (T. vivax; 10 mg/kg bid SC for 4 days): Full cure | Acute T. vivax efficacy in mice (T. vivax; 10 mg/kg, single dose, SC): Partial cure (1/3) | Acute T. vivax efficacy in mice (T. vivax; 30 mg/kg, single dose, SC): sterile cure; also recorded: Full cure | EC50 (T. congolense [3]): 18 nM

Bovine Microsome Cli (BLM: bovine microsomal clearance) [2]: 1.6 mL/min/g | solubility kinetic at 24 h [4]: 53 µM (≈ 26.8 µg/mL) | EC50 (T. congolense [3]): 0.4 nM
SMILES: CC(C)CS(=O)(=O)N[C@H]1CC[C@H](Nc2nc(N)c(C(=O)c3c(Cl)cccc3Cl)s2)CC1 [Compound 10, N-((trans)-4-((4-Amino-5-(2,6-dichlorobenzoyl)thiazol-2-yl)amino)cyclohexyl)-2-methylpropane-1-sulfonamide]
Efficacy, T. congo (T. congolense [1]; 3 mg/kg (head: SC for 4 days)): Full cure (3/3) 3 mg/kg | Efficacy, T. vivax (T. vivax; 3 mg/kg for 4 days): Full cure (3/3) 3 mg/kg

Bovine Microsome Cli (BLM: bovine microsomal clearance) [2]: 0.5 mL/min/g | solubility kinetic ([4]; range 250-12 µM): > 250 µM | EC50 (T. congolense [3]): 1.3 nM
SMILES: CNCc1cc(F)c(C(=O)c2sc(N[C@H]3CC[C@H](NS(=O)(=O)CC(C)C)CC3)nc2N)c(F)c1.Cl [Compound 8, N-((trans)-4-((4-Amino-5-(2,6-difluoro-4-((methylamino)methyl)benzoylthiazol-2-yl)amino)cyclohexyl))-2-methylpropane-1-sulfonamide Hydrochloride]
Efficacy at 10 mg/kg SC for 4 days, T. congo (T. congolense [1]): Full cure (3/3) | Efficacy at 10 mg/kg SC for 4 days, T. vivax (T. vivax): Full cure (3/3)

SMILES: CC(C)CS(=O)(=O)N[C@H]1CC[C@H](Nc2nc(N)c(C(=O)c3c(F)cc(CN(C)C)cc3F)s2)CC1 [Compound 2, N-(trans)-[4-[[4-Amino-5-[4-(dimethylaminomethyl)-2,6-difluoro-benzoyl]thiazol-2-yl]amino]cyclohexyl]-2-methyl-propane-1-sulfonamide]
Efficacy in T. congolense-infected mice, implanted ALZET osmotic pumps (T. congolense [1]; SC pump delivery, all dose levels): cured; also recorded: full cure | Efficacy, T. congo (T. congolense [1]; 3 mg/kg (head: SC for 4 days)): Partial cure (2/3) | Efficacy at 10 mg/kg SC for 4 days, T. congo (T. congolense [1]; 10 mg/kg): fully curative; also recorded: Full cure; also recorded: Partial cure (1/3) | Efficacy, T. congo (T. congolense [1]; 10 mg/kg once daily for 2 days): Partial cure (2/3) | Efficacy, T. congo (T. congolense [1]; 10 mg/kg, regimen not restated, listed after the 3 mg/kg result): Full cure | Bovine Microsome Cli (BLM: bovine microsomal clearance) [2]: 1.1 mL/min/g | solubility kinetic at 24 h [4]: 250 µM (≈ 132 µg/mL) | Efficacy, T. vivax (T. vivax; 3 mg/kg for 4 days, 3 mg/kg): Full cure (3/3) 3 and 10 mg/kg for 4 days 10 mg/kg for 2 days; also recorded: Full cure (3/3); 3 and 10 mg/kg for 4 days, 10 mg/kg for 2 days | Efficacy at 10 mg/kg SC for 4 days, T. vivax (T. vivax; 10 mg/kg): fully curative; also recorded: Full cure (3/3) 3 and 10 mg/kg for 4 days 10 mg/kg for 2 days; also recorded: Full cure (3/3); 3 and 10 mg/kg for 4 days, 10 mg/kg for 2 days | Efficacy, T. vivax (T. vivax; 10 mg/kg for 2 days, 10 mg/kg): Full cure (3/3) 3 and 10 mg/kg for 4 days 10 mg/kg for 2 days; also recorded: Full cure (3/3); 3 and 10 mg/kg for 4 days, 10 mg/kg for 2 days | EC50 (T. congolense [3]): 3.2 nM

— article PMC9014415, “Repositioning of a Diaminothiazole Series Confirmed to Target the Cyclin-Dependent Kinase CRK12 for Use in the Treatment of African Animal Trypanosomiasis” (Journal of Medicinal Chemistry, 2022)
